Biological target: T1, Solute carrier family 12 member 5 (Homo sapiens, UniProt Q9H2X9)
T1 sequence (Q9H2X9 whole entry): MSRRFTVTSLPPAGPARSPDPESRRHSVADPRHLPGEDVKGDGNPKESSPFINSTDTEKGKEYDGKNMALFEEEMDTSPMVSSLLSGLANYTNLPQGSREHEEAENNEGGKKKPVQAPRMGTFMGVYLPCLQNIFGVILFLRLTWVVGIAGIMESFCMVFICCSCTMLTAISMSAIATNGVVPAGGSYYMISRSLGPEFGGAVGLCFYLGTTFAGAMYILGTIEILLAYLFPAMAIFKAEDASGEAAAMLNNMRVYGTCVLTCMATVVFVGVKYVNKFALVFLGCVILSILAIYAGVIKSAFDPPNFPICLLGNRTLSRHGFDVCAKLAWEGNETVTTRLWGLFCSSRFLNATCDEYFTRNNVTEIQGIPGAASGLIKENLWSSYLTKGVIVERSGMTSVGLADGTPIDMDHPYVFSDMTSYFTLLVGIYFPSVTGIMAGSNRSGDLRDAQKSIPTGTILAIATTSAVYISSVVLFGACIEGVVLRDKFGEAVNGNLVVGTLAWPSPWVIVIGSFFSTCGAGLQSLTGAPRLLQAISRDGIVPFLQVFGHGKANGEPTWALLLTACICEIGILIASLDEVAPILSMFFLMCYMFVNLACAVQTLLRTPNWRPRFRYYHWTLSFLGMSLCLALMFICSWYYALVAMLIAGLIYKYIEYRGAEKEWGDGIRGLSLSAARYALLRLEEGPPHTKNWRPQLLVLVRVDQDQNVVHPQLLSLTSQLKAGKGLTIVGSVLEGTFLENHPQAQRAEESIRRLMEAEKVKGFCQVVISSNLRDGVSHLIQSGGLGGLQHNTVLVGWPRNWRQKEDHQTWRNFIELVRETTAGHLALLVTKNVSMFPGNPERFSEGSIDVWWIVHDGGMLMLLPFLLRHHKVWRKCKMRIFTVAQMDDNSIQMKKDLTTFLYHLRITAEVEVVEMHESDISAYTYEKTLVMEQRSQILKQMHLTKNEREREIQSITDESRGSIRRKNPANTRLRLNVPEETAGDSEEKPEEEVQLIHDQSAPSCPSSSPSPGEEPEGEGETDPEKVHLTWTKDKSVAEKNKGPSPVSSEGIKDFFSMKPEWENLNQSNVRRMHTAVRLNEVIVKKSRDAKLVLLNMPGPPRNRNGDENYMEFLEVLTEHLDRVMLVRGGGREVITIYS
Experiment: KCC2 modulator potency by thallium flux, dose response, cell-based, HEK293 KCC2, FluoZin-2 fluorescence (AID 1736)
Conditions: not given

Going from `Cc1[nH]c2ccccc2c1SCC(=O)N1CCN(c2ccccc2)CC1` [2-[(2-methyl-1H-indol-3-yl)thio]-1-(4-phenyl-1-piperazinyl)ethanone] to `O=C(CSc1nnnn1-c1ccc(Cl)cc1)N1CCc2ccccc2C1` [2-[1-(4-chlorophenyl)tetrazol-5-yl]sulfanyl-1-(3,4-dihydro-1H-isoquinolin-2-yl)ethanone], the EC50 falls from 5.46 µM to 1.42 µM (3.8-fold). The second is the more potent here.

Going from `O=S(=O)(NCc1ccccc1)c1ccc(Cl)c(S(=O)(=O)NCc2ccccc2)c1` [1-N,3-N-dibenzyl-4-chlorobenzene-1,3-disulfonamide] to `COc1ccc(S(=O)(=O)N(CCc2ccccc2)CC(=O)O)cc1Cl` [2-[(3-chloranyl-4-methoxy-phenyl)sulfonyl-(2-phenylethyl)amino]ethanoic acid], the EC50 rises from 1.7 µM to 11.9 µM (7-fold). The first is the more potent here.

Compared with `C=CCn1c(Cc2cccs2)nnc1SCC(=O)c1ccc2ccccc2c1` [1-(2-naphthalenyl)-2-[[4-prop-2-enyl-5-(thiophen-2-ylmethyl)-1,2,4-triazol-3-yl]thio]ethanone], `O=C(CSc1ccc(-c2ccccc2)nn1)c1ccccc1` [1-phenyl-2-(6-phenylpyridazin-3-yl)sulfanyl-ethanone] is 5.8-fold lower in EC50: 6.12 µM for the first, 1.06 µM for the second.

`COC(=O)[C@@H](NC(=O)O[C@@H]1C(=O)c2ccc(OC)cc2O[C@H]1c1cccc(C(F)(F)F)c1)C(C)C` [(2S)-2-[[(2S,3S)-4-keto-7-methoxy-2-[3-(trifluoromethyl)phenyl]chroman-3-yl]oxycarbonylamino]-3-methyl-butyric acid methyl ester] and `CC(C)N1C(=O)S/C(=C/c2ccccc2OCc2ccc(C(=O)O)cc2)C1=O` are within 1.5-fold of each other in EC50: 1.85 µM for the first, 2.21 µM for the second.

Going from `O=C(Cn1cnc2c(nnn2-c2ccccc2)c1=O)NCCc1ccccc1` [2-(7-keto-3-phenyl-triazolo[4,5-d]pyrimidin-6-yl)-N-phenethyl-acetamide] to `Cc1ccc(Cn2c(SCC(=O)Nc3cc(C)on3)nc3ccccc3c2=O)cc1` [2-[[4-keto-3-(4-methylbenzyl)quinazolin-2-yl]thio]-N-(5-methylisoxazol-3-yl)acetamide], the EC50 rises from 2.52 µM to 65.1 µM (26-fold). The first is the more potent here.

First: NC(=S)NN=C1C(=O)N(Cc2ccc(F)cc2)c2ccccc21 [1-[(Z)-[1-[(4-fluorophenyl)methyl]-2-oxidanylidene-indol-3-ylidene]amino]thiourea]
Second: O=C(NCCOc1ccccc1F)c1ccccc1SCc1ccc(F)cc1 [2-[(4-fluorobenzyl)thio]-N-[2-(2-fluorophenoxy)ethyl]benzamide]
The EC50 of the first is 11-fold higher: 7.98 µM for the first, 0.717 µM for the second.

Compared with `O=C(C1CCN(S(=O)(=O)c2cccs2)CC1)N1CCc2ccccc2C1` [3,4-dihydro-1H-isoquinolin-2-yl-(1-thiophen-2-ylsulfonyl-4-piperidinyl)methanone], `Cc1cccc(-c2nc(C[S+]([O-])CC(=O)N3CCc4ccccc4C3)c(C)o2)c1` (stereo not drawn) [1-(3,4-dihydro-1H-isoquinolin-2-yl)-2-[[5-methyl-2-(3-methylphenyl)-1,3-oxazol-4-yl]methylsulfinyl]ethanone] is 190-fold lower in EC50: 2650 µM for the first, 13.7 µM for the second. The second is the more potent here.

Going from `CC(C)c1onc(C(=O)N2CCN(Cc3ccccc3)CC2)c1[N+](=O)[O-]` [(4-benzylpiperazin-1-yl)-(4-nitro-5-propan-2-yl-1,2-oxazol-3-yl)methanone] to `N#Cc1nc(-c2cccs2)oc1N1CCN(Cc2ccccc2)CC1` [5-(4-benzyl-1-piperazinyl)-2-(2-thienyl)-1,3-oxazole-4-carbonitrile], the EC50 rises from 0.392 µM to 4.16 µM (11-fold).

`COc1cc(C(=S)N2CCOCC2)cc(OC)c1OC(=O)Cc1ccccc1` [(2,6-dimethoxy-4-morpholin-4-ylcarbothioyl-phenyl) 2-phenylethanoate] and `O=C(COC(=O)c1cc([N+](=O)[O-])ccc1NCc1ccccc1)NC1CCCCC1` [2-(benzylamino)-5-nitro-benzoic acid [2-(cyclohexylamino)-2-keto-ethyl] ester] are within 1.5-fold of each other in EC50: 0.408 µM for the first, 0.481 µM for the second.

Compared with `O=C(OC1CCc2ccccc2C1=O)c1ccccc1O` (stereo not drawn) [MLS000051417], `S=C(NCc1ccccc1Cl)Nc1ccccc1Cl` [1-(2-chlorobenzyl)-3-(2-chlorophenyl)thiourea] is 4.6-fold lower in EC50: 26.5 µM for the first, 5.74 µM for the second. The second is the more potent here.

Compared with `O=C(NCc1ccc2c(c1)OCO2)c1ccc(COc2cc(Cl)ccc2Cl)o1` [5-[(2,5-dichlorophenoxy)methyl]-N-piperonyl-2-furamide], `O=C(Nc1cccnc1)c1ccc(COc2cc(Cl)ccc2Cl)o1` [5-[(2,5-dichlorophenoxy)methyl]-N-(3-pyridinyl)-2-furancarboxamide] is 1.8-fold lower in EC50: 7.14 µM for the first, 3.88 µM for the second.

First: CC(=O)NCCC(=O)N1CCCC(CNC(=O)c2ccc(-c3ccccc3)cc2)C1 (stereo not drawn) [MLS000733794]
Second: O=C(CSc1nnc(-c2ccc(O)cc2)n1Cc1ccco1)N1CCc2ccccc2C1 [1-(3,4-Dihydro-1H-isoquinolin-2-yl)-2-[4-furan-2-ylmethyl-5-(4-hydroxy-phenyl)-4H-[1,2,4]triazol-3-ylsulfanyl]-ethanone]
The EC50 of the first is 6.9-fold higher: 38.4 µM for the first, 5.59 µM for the second.

`Sc1nnc(COc2ccc(Cl)cc2)o1` [5-(4-Chloro-phenoxymethyl)-3H-[1,3,4]oxadiazole-2-thione] and `CN(C)S(=O)(=O)c1ccc(Cl)c(C(=O)Nc2nc3ccccc3[nH]2)c1` [SMR000370637] are within 1.5-fold of each other in EC50: 3.12 µM for the first, 4.52 µM for the second.

`CNc1ccc2oc(C[C@H]3O[C@@]4(CC[C@H]3C)O[C@H]([C@H](C)C(=O)c3ccc[nH]3)[C@H](C)C[C@H]4C)nc2c1C(=O)O` [MLS001056783] and `Cc1ccc(C(=O)O)cc1-c1ccc(C=C2NC(=O)N(c3ccccc3)C2=O)o1` [3-[5-[(E)-(2,5-dioxo-1-phenylimidazolidin-4-ylidene)methyl]furan-2-yl]-4-methylbenzoic acid] are within 1.5-fold of each other in EC50: 9.96 µM for the first, 10.7 µM for the second.

First: CS/C(=N\Cc1ccc(F)cc1)NS(=O)(=O)c1cccs1 [3-(4-fluorobenzyl)-2-methyl-1-(2-thienylsulfonyl)isothiourea]
Second: O=C(NNc1nc(-c2ccccc2)cs1)c1cccs1 [MLS000858987]
The EC50 of the first is 2.6-fold higher: 0.498 µM for the first, 0.189 µM for the second. The second is the more potent here.

`Cc1nn2c(nc(O)c3ccccc32)c1C=O` [MLS000565386] showed an EC50 of 20.6 µM.

Same assay, conditions: inactive by the depositor's call

Going from `O=C(CSc1nc2cc(Cl)ccc2s1)Nc1cccc(S(=O)(=O)N2CCOCC2)c1` [2-[(5-chloranyl-1,3-benzothiazol-2-yl)sulfanyl]-N-(3-morpholin-4-ylsulfonylphenyl)ethanamide] to `COc1cccc(C2c3c(oc4ccc(F)cc4c3=O)C(=O)N2CCCN2CCOCC2)c1` (stereo not drawn) [7-fluoranyl-1-(3-methoxyphenyl)-2-(3-morpholin-4-ylpropyl)-1H-chromeno[2,3-c]pyrrole-3,9-dione], the EC50 rises from 25.1 µM to 69.9 µM (2.8-fold). The first is the more potent here.

Going from `CCOc1ccc(C(C(=O)NC2CCCC2)N(CCCO)C(=O)c2ccc(-c3ccccc3)[nH]2)cc1` (stereo not drawn) [N-[2-(cyclopentylamino)-1-(4-ethoxyphenyl)-2-oxoethyl]-N-(3-hydroxypropyl)-5-phenyl-1H-pyrrole-2-carboxamide] to `Cc1ccc(N(CC(=O)NCCSc2ccccn2)S(=O)(=O)c2ccc(F)cc2)cc1` [2-(N-(4-fluorophenyl)sulfonyl-4-methyl-anilino)-N-[2-(2-pyridylthio)ethyl]acetamide], the EC50 falls from 843 µM to 2.87 µM (290-fold).

Going from `O=c1c2ccccc2[nH]c(=S)n1CCN1CCC(=C(c2ccc(F)cc2)c2ccc(F)cc2)CC1` [SMR000058550] to `CC(C)CC(c1nnnn1Cc1cccs1)N1CCN(c2nc3ccccc3s2)CC1` (stereo not drawn) [2-[4-[3-methyl-1-[1-(2-thenyl)tetrazol-5-yl]butyl]piperazino]-1,3-benzothiazole], the EC50 falls from 181 µM to 46.4 µM (3.9-fold).

Work on `Cc1ccc(C=NNC(=S)Nc2cccc(S(=O)(=O)N(C)C)c2)o1` yielded an EC50 of 16.6 µM.

Reference: BindingDB's records for doi:10.7270/Q2M32T6M (Vanderbilt Screening Center for GPCRs, Ion Channels and …, 2009)
